pIC50: −log10 of the molar value.
Legend:
[1] = molecular target: Tyrosine-protein kinase Lck (Homo sapiens, UniProt P06239); test: Inhibition of recombinant full length human LCK using […] as substrate after 40 mins in presence of [gamma-33ATP] by radiometric scintillation counting analysis
[2] = molecular target: Serine/threonine-protein kinase 24 (Homo sapiens, UniProt Q9Y6E0); test: Inhibition of recombinant human MST3 (1 to 304 residues) using ERMRPRKRQGSVR as substrate measured after 40 mins in presence of [gamma33P]ATP by radiometric scintillation counting analysis
Chain of Serine/threonine-protein kinase 24 (Q9Y6E0 whole entry, the tested form may be a part): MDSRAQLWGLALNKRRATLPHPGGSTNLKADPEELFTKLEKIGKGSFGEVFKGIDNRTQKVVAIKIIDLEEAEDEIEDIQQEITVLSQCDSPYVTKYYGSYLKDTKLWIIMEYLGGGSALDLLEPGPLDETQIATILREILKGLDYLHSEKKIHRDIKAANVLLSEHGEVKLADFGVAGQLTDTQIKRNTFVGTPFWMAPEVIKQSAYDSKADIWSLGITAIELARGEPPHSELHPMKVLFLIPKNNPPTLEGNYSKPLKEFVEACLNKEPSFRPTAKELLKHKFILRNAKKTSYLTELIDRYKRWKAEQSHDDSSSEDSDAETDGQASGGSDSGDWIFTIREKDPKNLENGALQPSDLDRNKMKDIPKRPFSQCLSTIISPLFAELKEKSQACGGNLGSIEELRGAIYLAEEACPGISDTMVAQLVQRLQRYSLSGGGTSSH

[3] = molecular target: Serine/threonine-protein kinase 38-like (Homo sapiens, UniProt Q9Y2H1); test: Inhibition of recombinant human NDR2 (83 to end residues) using RSRSRSRSRSRSRSR as substrate measured after 40 mins in presence of [gamma33P]ATP by radiometric scintillation counting analysis
[4] = molecular target: [Pyruvate dehydrogenase (acetyl-transferring)] kinase isozyme 4, mitochondrial (Homo sapiens, UniProt Q16654); test: Inhibition of recombinant human full length PDHK4 using KKKYHGHSMSDPG as substrate incubated for 40 mins in presence of [gamma33P]ATP by radiometric scintillation counting analysis
Chain of [Pyruvate dehydrogenase (acetyl-transferring)] kinase isozyme 4, mitochondrial (Q16654 whole entry): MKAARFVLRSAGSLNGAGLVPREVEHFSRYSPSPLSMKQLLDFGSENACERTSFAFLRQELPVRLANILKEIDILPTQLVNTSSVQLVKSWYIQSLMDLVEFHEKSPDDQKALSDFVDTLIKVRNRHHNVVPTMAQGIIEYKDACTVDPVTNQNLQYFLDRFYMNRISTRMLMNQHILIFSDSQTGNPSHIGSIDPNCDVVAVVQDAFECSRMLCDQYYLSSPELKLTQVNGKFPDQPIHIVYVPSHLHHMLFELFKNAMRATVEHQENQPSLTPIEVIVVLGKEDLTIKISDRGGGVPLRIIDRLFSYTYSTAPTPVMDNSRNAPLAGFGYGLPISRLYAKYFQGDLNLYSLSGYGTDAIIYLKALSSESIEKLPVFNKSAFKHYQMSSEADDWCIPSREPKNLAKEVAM

[5] = molecular target: Glycogen synthase kinase-3 beta (Homo sapiens, UniProt P49841); test: Inhibition of human GSK-3beta H350L mutant (2 to end residues) using YRRAAVPPSPSLSR as substrate after 40 mins by [gamma-33ATP] radiometric assay
[6] = molecular target: Cyclin-dependent kinase 14/Cyclin-Y (Homo sapiens, UniProt O94921); test: Inhibition of recombinant full length human CDK14/cyclinY in presence of [gamma-33ATP] by radiometric scintillation counting analysis; format: protein-complex assay
Chain of Cyclin-dependent kinase 14/Cyclin-Y (O94921 whole entry): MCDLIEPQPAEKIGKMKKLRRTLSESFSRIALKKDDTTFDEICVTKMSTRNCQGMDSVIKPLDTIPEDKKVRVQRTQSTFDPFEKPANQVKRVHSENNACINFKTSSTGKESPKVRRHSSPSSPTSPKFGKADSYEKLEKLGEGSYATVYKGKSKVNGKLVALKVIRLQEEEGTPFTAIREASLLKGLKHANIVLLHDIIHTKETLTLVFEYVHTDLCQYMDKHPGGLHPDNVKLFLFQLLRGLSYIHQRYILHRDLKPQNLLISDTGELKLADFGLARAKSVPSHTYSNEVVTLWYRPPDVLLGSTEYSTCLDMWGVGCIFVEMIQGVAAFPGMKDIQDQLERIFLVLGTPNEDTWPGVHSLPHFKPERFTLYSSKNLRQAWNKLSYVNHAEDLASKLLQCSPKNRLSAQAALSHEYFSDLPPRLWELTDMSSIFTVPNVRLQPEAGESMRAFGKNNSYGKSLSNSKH
Chain of Cyclin-dependent kinase 14/Cyclin-Y (Q8ND76 whole entry, further chain): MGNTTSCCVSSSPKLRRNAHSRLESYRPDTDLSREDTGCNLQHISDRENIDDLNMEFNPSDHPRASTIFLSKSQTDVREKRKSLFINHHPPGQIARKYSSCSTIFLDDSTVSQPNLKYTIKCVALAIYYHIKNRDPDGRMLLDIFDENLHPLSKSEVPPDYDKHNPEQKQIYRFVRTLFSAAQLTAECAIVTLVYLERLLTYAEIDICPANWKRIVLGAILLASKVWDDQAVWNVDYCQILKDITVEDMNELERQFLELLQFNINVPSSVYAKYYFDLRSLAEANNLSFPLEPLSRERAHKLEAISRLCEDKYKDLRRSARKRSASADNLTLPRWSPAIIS

[7] = molecular target: Serine/threonine-protein kinase NLK (Homo sapiens, UniProt Q9UBE8); test: Inhibition of recombinant human NLK (121 to end residues) using protein as substrate measured after 40 mins in presence of [gamma33P]ATP by radiometric scintillation counting analysis
[8] = molecular target: Serine/threonine-protein kinase 17B (Homo sapiens, UniProt O94768); test: Inhibition of recombinant full length human DRAK2 using KKRPQRRYSNVF as substrate at 120 mins in presence of [gamma-33ATP] by radiometric scintillation counting analysis
[9] = molecular target: cGMP-dependent protein kinase 1 (Homo sapiens, UniProt Q13976); test: Inhibition of recombinant full length human PKG1alpha using RRRLSFAEPG as substrate incubated for 40 mins in presence of [gamma-33P]ATP and 10 uM ATP by radiometric scintillation counting analysis
[10] = molecular target: MAP kinase-activated protein kinase 3 (Homo sapiens, UniProt Q16644); test: Inhibition of recombinant human MAPKAPK3 (2 to end residues) using KKLNRTLSVA as substrate incubated for 40 mins in presence of [gamma-33ATP by radiometric scintillation counting analysis
Chain of MAP kinase-activated protein kinase 3 (Q16644 whole entry): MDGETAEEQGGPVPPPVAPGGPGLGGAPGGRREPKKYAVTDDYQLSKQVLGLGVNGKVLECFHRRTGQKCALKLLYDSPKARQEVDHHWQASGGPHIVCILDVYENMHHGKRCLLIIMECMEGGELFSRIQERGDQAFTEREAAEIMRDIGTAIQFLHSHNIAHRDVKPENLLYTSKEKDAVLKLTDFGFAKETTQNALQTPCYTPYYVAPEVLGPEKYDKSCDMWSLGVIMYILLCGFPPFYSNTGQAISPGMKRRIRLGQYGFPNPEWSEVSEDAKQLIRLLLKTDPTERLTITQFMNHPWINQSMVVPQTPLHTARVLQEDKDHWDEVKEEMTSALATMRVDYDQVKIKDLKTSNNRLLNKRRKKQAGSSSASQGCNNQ

[11] = molecular target: Epidermal growth factor receptor (Homo sapiens, UniProt P00533, T790M); test: Inhibition of recombinant human EGFR T790M mutant (696 to end residues) using poly(Glu, Tyr) 4:1 as substrate after 40 mins in presence of [gamma-33ATP] by radiometric scintillation counting analysis
[12] = molecular target: Calcium/calmodulin-dependent protein kinase type II subunit beta (Homo sapiens, UniProt Q13554); test: Inhibition of recombinant human CaMK2beta (1 to 315 residues) using calmodulin a substrate incubated for 40 mins in presence of [gamma-33ATP] by radiometric scintillation counting analysis
[13] = Inhibition of recombinant human PKCeta V108L/G109R/L392Q triple mutant (2 to end residues) using ERMRPRKRQGSVRR as substrate incubated for 40 mins in presence of [gamma33P]ATP by radiometric scintillation counting analysis
[14] = molecular target: Serine/threonine-protein kinase pim-2 (Homo sapiens, UniProt Q9P1W9); test: Inhibition of recombinant human Pim2 (2 to end residues) using RSRHSSYPAGT as substrate incubated for 40 mins in presence of [gamma33P]ATP by radiometric scintillation counting analysis
[15] = molecular target: Myosin light chain kinase 2, skeletal/cardiac muscle (Homo sapiens, UniProt Q9H1R3); test: Inhibition of recombinant full length human MYLK2 using KKLNRTLSFAEPG as substrate measured after 40 mins in presence of [gamma33P]ATP by radiometric scintillation counting analysis
Chain of Myosin light chain kinase 2, skeletal/cardiac muscle (Q9H1R3 whole entry, the tested form may be a part): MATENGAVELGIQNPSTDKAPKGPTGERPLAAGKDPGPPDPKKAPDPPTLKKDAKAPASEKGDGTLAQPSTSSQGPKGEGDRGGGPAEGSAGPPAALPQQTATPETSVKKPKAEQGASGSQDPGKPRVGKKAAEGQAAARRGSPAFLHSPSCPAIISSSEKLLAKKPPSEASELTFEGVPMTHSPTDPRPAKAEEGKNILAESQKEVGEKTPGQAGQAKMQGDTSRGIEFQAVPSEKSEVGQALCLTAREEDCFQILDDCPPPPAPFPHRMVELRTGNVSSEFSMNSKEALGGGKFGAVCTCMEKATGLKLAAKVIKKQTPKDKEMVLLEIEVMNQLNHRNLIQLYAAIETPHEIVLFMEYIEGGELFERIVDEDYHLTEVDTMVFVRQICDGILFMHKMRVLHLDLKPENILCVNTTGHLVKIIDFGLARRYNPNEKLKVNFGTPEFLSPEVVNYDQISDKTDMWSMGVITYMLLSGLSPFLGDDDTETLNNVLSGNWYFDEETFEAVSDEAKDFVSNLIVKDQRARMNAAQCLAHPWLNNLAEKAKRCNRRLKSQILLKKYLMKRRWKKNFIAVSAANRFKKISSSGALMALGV

[16] = molecular target: Fibroblast growth factor receptor 2 (Homo sapiens, UniProt P21802, N549H); test: Inhibition of recombinant human FGFR2 N549H mutant (456 to 765 residues) using GGEEEEYFELVKK as substrate after 40 mins in presence of [gamma-33ATP] by radiometric scintillation counting analysis
[17] = molecular target: Tyrosine-protein kinase ABL1 (Homo sapiens, UniProt P00519, Q252H); test: Inhibition of human recombinant ABL1 Q252H mutant (27 to end residues) using EAIYAAPFAKKK as substrate incubated for 40 mins in presence of [gamma-33P]ATP by radiometric scintillation counting analysis
[18] = molecular target: Serine/threonine-protein kinase tousled-like 1 (Homo sapiens, UniProt Q9UKI8); test: Inhibition of recombinant full-length human TLK1 using casein as substrate incubated for 40 mins in presence of [gamma33P]ATP by radiometric scintillation counting analysis
[19] = Protein binding in rat plasma at 1 uM incubated incubated for 5 hrs under shaking conditions by LC-MS analysis; format: ADME, cell-free; conditions: read-out: PPB (converted)
[20] = molecular target: Ribosomal protein S6 kinase alpha-3 (Homo sapiens, UniProt P51812); test: Inhibition of recombinant human Rsk2 (2 to end residues) using KKKNRTLSVA as substrate incubated for 40 mins in presence of [gamma33P]ATP by radiometric scintillation counting analysis
Chain of Ribosomal protein S6 kinase alpha-3 (P51812 whole entry): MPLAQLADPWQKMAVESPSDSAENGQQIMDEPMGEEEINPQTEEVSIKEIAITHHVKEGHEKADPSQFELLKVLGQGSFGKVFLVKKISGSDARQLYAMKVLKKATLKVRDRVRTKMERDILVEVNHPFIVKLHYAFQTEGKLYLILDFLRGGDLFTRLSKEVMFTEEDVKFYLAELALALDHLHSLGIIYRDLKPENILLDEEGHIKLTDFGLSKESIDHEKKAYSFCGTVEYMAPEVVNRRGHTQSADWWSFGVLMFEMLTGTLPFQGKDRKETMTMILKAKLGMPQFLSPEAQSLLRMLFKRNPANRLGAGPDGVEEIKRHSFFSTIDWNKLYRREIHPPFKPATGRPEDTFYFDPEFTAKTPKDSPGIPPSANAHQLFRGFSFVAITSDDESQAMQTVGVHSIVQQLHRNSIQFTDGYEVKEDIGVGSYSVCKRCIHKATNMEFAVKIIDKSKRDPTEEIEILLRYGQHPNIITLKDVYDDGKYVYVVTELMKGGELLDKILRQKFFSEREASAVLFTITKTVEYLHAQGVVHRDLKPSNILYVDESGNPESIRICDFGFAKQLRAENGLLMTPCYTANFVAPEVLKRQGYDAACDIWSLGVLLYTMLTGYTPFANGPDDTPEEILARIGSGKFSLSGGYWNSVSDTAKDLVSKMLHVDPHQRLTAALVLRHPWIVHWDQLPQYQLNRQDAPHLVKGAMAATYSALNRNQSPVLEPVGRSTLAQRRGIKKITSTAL

[21] = molecular target: Tyrosine-protein kinase JAK3 (Homo sapiens, UniProt P52333); test: Inhibition of human recombinant JAK3 (781 to end residues) using GGEEEEYFELVKK as substrate after 40 mins by [gamma-33ATP] by radiometric scintillation counting analysis
[22] = molecular target: G protein-coupled receptor kinase 3 (Homo sapiens, UniProt P35626); test: Inhibition of recombinant full length human GRK3 using casein as substrate after 40 mins in presence of [gamma-33ATP] by radiometric scintillation counting analysis
[23] = molecular target: Cytoplasmic tyrosine-protein kinase BMX (Homo sapiens, UniProt P51813); test: Inhibition of recombinant full length human BMX using poly(Glu, Tyr) 4:1 as substrate incubated for 40 mins in presence of [gamma-33ATP] by radiometric scintillation counting analysis
Chain of Cytoplasmic tyrosine-protein kinase BMX (P51813 whole entry): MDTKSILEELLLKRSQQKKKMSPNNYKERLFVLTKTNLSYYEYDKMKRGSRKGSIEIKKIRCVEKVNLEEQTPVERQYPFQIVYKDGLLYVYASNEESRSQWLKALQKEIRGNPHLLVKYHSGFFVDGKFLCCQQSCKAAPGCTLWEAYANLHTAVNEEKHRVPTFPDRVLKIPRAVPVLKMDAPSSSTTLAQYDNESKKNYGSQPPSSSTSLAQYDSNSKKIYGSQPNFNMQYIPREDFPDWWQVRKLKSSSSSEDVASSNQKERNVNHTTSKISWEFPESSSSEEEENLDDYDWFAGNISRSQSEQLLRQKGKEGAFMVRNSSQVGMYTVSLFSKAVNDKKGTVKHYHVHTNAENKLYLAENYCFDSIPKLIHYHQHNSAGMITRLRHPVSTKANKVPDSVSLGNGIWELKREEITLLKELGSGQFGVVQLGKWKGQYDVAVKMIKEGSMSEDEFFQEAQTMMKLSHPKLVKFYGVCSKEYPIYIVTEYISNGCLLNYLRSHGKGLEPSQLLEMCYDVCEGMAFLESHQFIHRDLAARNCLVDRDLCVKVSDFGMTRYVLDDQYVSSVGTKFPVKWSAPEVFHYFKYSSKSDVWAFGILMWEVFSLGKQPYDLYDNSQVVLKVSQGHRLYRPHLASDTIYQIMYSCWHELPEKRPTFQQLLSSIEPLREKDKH

[24] = molecular target: Proto-oncogene tyrosine-protein kinase receptor Ret (Homo sapiens, UniProt P07949, V804M); test: Inhibition of recombinant human Ret V804M mutant (658 to end residues) using KKKVSRSGLYRSP as substrate incubated for 40 mins in presence of [gamma33P]ATP by radiometric scintillation counting analysis
[25] = molecular target: Mitogen-activated protein kinase kinase kinase kinase 1 (Homo sapiens, UniProt Q92918); test: Inhibition of human recombinant HPK1 (1 to 346 residues) using myelin basic protein as substrate after 40 mins by [gamma-33ATP] radiometric assay
[26] = molecular target: Serine/threonine-protein kinase pim-1 (Homo sapiens, UniProt P11309); test: Inhibition of recombinant full length human Pim1 using KKRNRTLTV as substrate incubated for 40 mins in presence of [gamma33P]ATP by radiometric scintillation counting analysis
Chain of Serine/threonine-protein kinase pim-1 (P11309 whole entry): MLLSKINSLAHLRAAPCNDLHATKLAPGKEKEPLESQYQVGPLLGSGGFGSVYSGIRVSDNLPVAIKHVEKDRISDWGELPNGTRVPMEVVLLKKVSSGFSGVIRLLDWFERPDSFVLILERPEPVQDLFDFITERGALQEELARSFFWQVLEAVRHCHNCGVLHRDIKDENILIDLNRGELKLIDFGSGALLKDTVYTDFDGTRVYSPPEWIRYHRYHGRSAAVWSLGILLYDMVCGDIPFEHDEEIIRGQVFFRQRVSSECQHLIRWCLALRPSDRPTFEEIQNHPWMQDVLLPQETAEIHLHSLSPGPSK

Chain of Tyrosine-protein kinase Lck (P06239 whole entry, the tested form may be a part): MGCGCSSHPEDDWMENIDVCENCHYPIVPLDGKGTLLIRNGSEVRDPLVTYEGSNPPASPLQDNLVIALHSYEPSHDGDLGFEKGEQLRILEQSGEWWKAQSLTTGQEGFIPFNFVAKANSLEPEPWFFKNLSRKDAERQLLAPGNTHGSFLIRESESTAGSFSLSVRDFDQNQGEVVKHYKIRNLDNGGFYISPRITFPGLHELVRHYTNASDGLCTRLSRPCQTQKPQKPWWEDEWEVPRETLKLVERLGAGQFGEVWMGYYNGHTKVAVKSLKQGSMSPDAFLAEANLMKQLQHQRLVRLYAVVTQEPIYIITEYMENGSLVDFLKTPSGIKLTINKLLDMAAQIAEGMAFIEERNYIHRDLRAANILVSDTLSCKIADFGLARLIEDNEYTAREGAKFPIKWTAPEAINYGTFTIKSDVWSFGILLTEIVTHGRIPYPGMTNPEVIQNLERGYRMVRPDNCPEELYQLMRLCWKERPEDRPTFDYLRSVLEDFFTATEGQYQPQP

CN(C)c1ccc(C(=O)Nc2cccc(NC(=O)COc3ccc4c(=O)ccoc4c3)c2)cc1
pIC50 [1]: < 5.00 | pIC50 [2]: < 5.00 | pIC50 [3]: < 5.00 | pIC50 [4]: < 5.00 | pIC50 [5]: < 5.00 | pIC50 [6]: < 5.00 | pIC50 [7]: < 5.00 | pIC50 [8]: < 5.00 | pIC50 [9]: 6.29 | pIC50 [10]: < 5.00 | pIC50 [11]: < 5.00 | pIC50 [12]: < 5.00 | pIC50 [13]: < 5.00 | pIC50 [14]: < 5.00 | pIC50 [15]: < 5.00 | pIC50 [16]: < 5.00 | pIC50 [17]: < 5.00 | pIC50 [18]: < 5.00 | fraction unbound at 5 h, 1 µM [19]: 0.004 | pIC50 [20]: < 5.00 | pIC50 [21]: < 5.00 | pIC50 [22]: < 5.00 | pIC50 [23]: < 5.00 | pIC50 [24]: < 5.00 | pIC50 [25]: < 5.00 | pIC50 [26]: < 5.00
